Values of other authors, collected in publication PMC5036784 (Biophysics, 2011).
Like-named read-outs stand apart in the source and are kept apart here.

Conditions: for rate constant of membrane binding kFB / rate constant of membrane dissociation kBF: 19F NMR; for time span of the binding and dissociation: timescale

| rate constant of membrane binding kFB (ref [3]) [s⁻¹] | time span of the binding and dissociation (ref [3]) | SMILES | rate constant of membrane dissociation kBF (ref [3]) [s⁻¹] | rate constant of membrane binding kFB (303K, ref [4]) [s⁻¹] | rate constant of membrane dissociation kBF (303K, ref [4]) [s⁻¹] | binding free energy ΔG (ref [4]) [kJ/mol] | time span of the binding and dissociation (ref [4]) |
| --- | --- | --- | --- | --- | --- | --- | --- |
| 0.2 | 10^−1–10^0 s | O=c1[nH]cc(F)c(=O)[nH]1 [5FU, 5-fluoro-1H-pyrimidine-2,4-dione] | 4.1 | – | – | – | – |
| – | – | Oc1ccc(C(c2ccc(O)cc2)(C(F)(F)F)C(F)(F)F)cc1 [FBPA, fluorinated bisphenol A] | – | 22 to 280 | 68 to 107 | -20 | 10^−3–10^−2 s |
